Here are results for three compounds from patent US12662705B2, “Interferon pathway genes regulate and predict efficacy of immunotherapy” (THE TRUSTEES OF THE UNIVERSITY OF PENNSYLVANIA, priority 2018, dated 2026).

“Also recorded” adds a separate entry of the source.

For series [1], the target named is JAK1 (Homo sapiens, UniProt P23458). The conditions noted are these: read-out: half maximal inhibitory concentration [IC50]; cited from earlier work.
For series [2] the following is noted: total daily dose 1200 mg; cited from earlier work.
Series [3] has as its system IFNGR knockout Res 499 tumors. Nature of the series: In vivo cytokine rescue studies in CD8 T cell-depleted mice. The conditions noted are these: direct intratumoral injection. Set-up: species or system mouse. On the procedure:
In vivo cytokine rescue studies: All mice were pre-treated with anti-CD8 two days before tumor injection. Either 1 μg IFNg or 100 ng CXCL10 was mixed in the PBS/tumor cell suspension prior to injection of the tumor. Mice then continued receiving 500-1000 ng IFNG or 100 ng CXCL10 intra/peritumorally every 3 days post-tumor implantation. For flow cytometry experiments, mice were harvested at day 13 to examine the effects of cytokine addback on immune recruitment in the absence of CD8 T cells. For survival experiments, intra/peritumoral injections continued every 3 days for the remainder of the experiment.

Series [4] relates to PD-L1 positive advanced NSCLC. The conditions noted are these: cited from earlier work.

JAK1, sequence (P23458 whole entry): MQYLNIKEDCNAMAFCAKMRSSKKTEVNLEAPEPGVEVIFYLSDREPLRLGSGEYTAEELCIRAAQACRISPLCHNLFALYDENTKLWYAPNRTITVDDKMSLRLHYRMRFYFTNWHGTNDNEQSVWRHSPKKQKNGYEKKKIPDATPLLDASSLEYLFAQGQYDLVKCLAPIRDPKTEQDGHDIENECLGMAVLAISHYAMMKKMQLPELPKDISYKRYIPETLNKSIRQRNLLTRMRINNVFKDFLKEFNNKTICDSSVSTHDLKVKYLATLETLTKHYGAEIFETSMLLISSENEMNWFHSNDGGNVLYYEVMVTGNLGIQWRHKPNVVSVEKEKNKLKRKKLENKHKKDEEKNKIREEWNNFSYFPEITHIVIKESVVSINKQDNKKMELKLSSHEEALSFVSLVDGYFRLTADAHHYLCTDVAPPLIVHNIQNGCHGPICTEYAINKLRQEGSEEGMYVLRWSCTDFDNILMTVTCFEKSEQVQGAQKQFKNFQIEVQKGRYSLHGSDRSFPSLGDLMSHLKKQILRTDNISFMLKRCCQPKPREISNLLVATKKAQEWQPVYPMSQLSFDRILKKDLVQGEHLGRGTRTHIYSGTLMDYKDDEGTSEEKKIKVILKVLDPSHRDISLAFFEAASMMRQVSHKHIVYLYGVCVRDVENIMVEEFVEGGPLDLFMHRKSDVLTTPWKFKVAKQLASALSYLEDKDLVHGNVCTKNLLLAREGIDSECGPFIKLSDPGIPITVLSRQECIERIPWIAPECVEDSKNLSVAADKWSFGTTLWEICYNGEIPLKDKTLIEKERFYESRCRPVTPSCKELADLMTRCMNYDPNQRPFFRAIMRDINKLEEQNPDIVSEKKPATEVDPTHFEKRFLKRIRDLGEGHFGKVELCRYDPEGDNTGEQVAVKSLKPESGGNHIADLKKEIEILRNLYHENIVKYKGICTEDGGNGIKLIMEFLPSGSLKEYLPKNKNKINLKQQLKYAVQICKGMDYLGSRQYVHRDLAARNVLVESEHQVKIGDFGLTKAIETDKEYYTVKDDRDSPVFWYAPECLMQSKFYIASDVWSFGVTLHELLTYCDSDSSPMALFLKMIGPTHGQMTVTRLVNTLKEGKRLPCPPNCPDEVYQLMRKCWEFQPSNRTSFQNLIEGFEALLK

Consider `N#CCC1(n2cc(-c3ncnc4[nH]ccc34)cn2)CN(C2CCN(C(=O)c3ccnc(C(F)(F)F)c3F)CC2)C1` [Itacitinib], for which the IC50 in series [1] was 3.6 nM. Also, the “adverse events at highest total daily dose” value in series [2] was “no adverse events”.
For “CXCL10: IFNG-regulated CXCR3 ligand chemokine injected intra/peritumorally”, in series [3], the “rescue of the decrease in NK/ILC frequency after CD8 T cell depletion” value is “partially rescue”.
For “Pembrolizumab: humanized monoclonal antibody of the IgG4/kappa isotype blocking the interaction between PD-1 and its ligands”, the “overall and progression free survival versus platinum doublet chemotherapy” value in series [4] (PD-L1 expression greater than or equal to 50%) is “superior overall and progression free survival; also recorded: improve overall survival and progression free survival”. Further, the response rate in series [4] (first line NSCLC, tumors expressing high level of PD-L1 (>50%)) is on record as 44.8%. For the same compound, in series [4] (untreated PD-L1 positive advanced NSCLC), the ORR is on record as 45%.
